Results published in patent publication US20180333382A1, “PHARMACEUTICAL COMPOSITIONS COMPRISING DGLA AND USE OF SAME” (DS Biopharma Limited, priority 2017, published 2018).
“Also recorded” adds a separate entry of the source. Marks after values point to notes of the source that are not given here.

How the values were obtained:
[1] = Phase one study part 2: free and total DGLA in skin blister fluid; assay type: in vivo, human
Text: The PK of DGLA in human skin following multiple doses of DS107G capsule given once daily for 28 days to healthy subjects.

[2] = system: patients with moderate to severe atopic dermatitis having normal eosinophil levels; experiment: Post hoc stratification of the phase II study by eosinophil level (normal <0.3×10^9/L); assay type: in vivo, human; conditions: for Percentage Change of BSA Levels From Baseline, Mean / Percentage Change of DLQI Scores From Baseline, Mean / Percentage Change of EASI Scores From Baseline, Mean / Percentage Change of IGA Scores From Baseline, Mean / Percentage Change of POEM Scores From Baseline, Mean / Percentage Change of SCORAD Levels From Baseline, Mean / Percentage Change of VAS Scores From Baseline, Mean: Normal Eosinophil Population
Method: Further to the randomized, double-blind, placebo-controlled, phase II study of Example 2 above, a post hoc stratification analysis was performed using the results of that study to assess the efficacy of orally administered DS107G (DGLA) to patients with moderate to severe atopic dermatitis having normal eosinophil levels of less than about 0.3×10^9/L compared to the same population receiving placebo and/or to the total study population. The primary objective of the post hoc stratification study was to compare the efficacy of orally administered DS107G capsules, versus placebo, in the treatment of adult patients with moderate to severe atopic dermatitis having normal eosinophil levels of less than about 0.3×10^9/L. The secondary objective was to compare the efficacy of orally administered DS107G capsules in the treatment of adult patients with moderate to severe atopic dermatitis having normal eosinophil levels of less than about 0.3×10^9/L versus the total study population. Unless stated otherwise, all elements of the post hoc stratification analysis were the same as those of the phase II study described in Example 2 above.

[3] = Phase one study: safety and tolerability (TEAEs, vital signs, ECG); conditions: for tolerability: healthy volunteers
Method: Screening procedures were conducted for both parts one and two before the start of the study on Day −1 (Baseline) by evaluating the safety assessments.
Subjects were monitored throughout their confinement at the Phase 1 unit for adverse reactions to the study drug and/or procedures.
Safety analyses were performed on the safety population tabulated by treatment arm, cohort, and visit. All safety data were characterized by descriptive statistical tools. […] Evaluation of safety assessments was performed in a descriptive manner. Continuous variables were characterized by their mean, standard deviation (SD), median, minimum and maximum values; discrete variables were characterized by their absolute (frequency) and relative (percentage) distribution.

[4] = Normal Eosinophil < 0.3 × 10^9/L, daily, 8 weeks
[5] = Normal Eosinophil < 0.3 × 10^9/L, daily, 8 weeks, LOCF
[6] = normal eosinophil levels, weeks 2, 4, 6, 8 and 10, vs placebo or total study population
[7] = patients having normal eosinophil levels
[8] = study population having normal eosinophil levels, oral, once daily, 8 weeks

Q: Which “mean free DGLA concentrations in skin blister fluid with a doubling in dose” value ([1]; Days 1, 8, 14 and 28) does the source give for `CCCCC/C=C\C/C=C\C/C=C\CCCCCCC(=O)O` [DS107G, Dihomo gamma linolenic acid] here?
A: The value was “approximately doubled”.

Q: What about the “mean free DGLA concentrations in skin blister fluid, Day 28 vs Day 1” value ([1]; both 2000 and 4000 mg daily) of the same compound?
A: The value was “about 3 fold”.

Q: And the “mean concentrations of free DGLA, plasma vs skin blister fluid” value ([1]; same dose, Day 8 and Day 14 (but not Day 28))?
A: Its value is “somewhat similar in plasma and skin blister fluid”.

Q: And the “mean concentrations of total DGLA, plasma vs skin blister fluid” value ([1]; same dose, after Day 1)?
A: The value was “much higher in plasma than in skin blister fluid”.

Q: What about the “EASI-50 (%)” value [2, 4] of the same compound?
A: Its value is 60%.

Q: What about the “EASI-75 (%)” value [2, 4] of the same compound?
A: Its value is 40%.

Q: What about the “BSA Change from Baseline” value [2, 5] of the same compound?
A: Its value is −41% *.

Q: And the “EASI Percentage Change from Baseline” value [2, 5]?
A: The value was −51% *.

Q: And the “IGA responder (%)” value [2, 5]?
A: The value was 42% *.

Q: And the “Pruritus Percentage Change from Baseline” value [2, 5]?
A: Its value is −53% *.

Q: And the “Percentage Change of BSA Levels From Baseline, Mean” value ([2]; Week 2)?
A: Its value is −10.8%.

Q: What about the “Percentage Change of DLQI Scores From Baseline, Mean” value ([2]; Week 2) of the same compound?
A: The value was −41.3%.

Q: And the “Percentage Change of EASI Scores From Baseline, Mean” value ([2]; Week 2)?
A: Its value is −20.7%.

Q: And the “Percentage Change of IGA Scores From Baseline, Mean” value ([2]; Week 2)?
A: Its value is −15.1%.

Q: What about the “Percentage Change of POEM Scores From Baseline, Mean” value ([2]; Week 2) of the same compound?
A: Its value is −41.8%.

Q: And the “Percentage Change of SCORAD Levels From Baseline, Mean” value ([2]; Week 2)?
A: The value was −16.5%.

Q: What about the “Percentage Change of VAS Scores From Baseline, Mean” value ([2]; Week 2) of the same compound?
A: The value was −29.8%.

Q: And the “Percentage Change of BSA Levels From Baseline, Mean” value ([2]; Week 4)?
A: Its value is −21.2%.

Q: And the “Percentage Change of DLQI Scores From Baseline, Mean” value ([2]; Week 4)?
A: Its value is −58.2%.

Q: And the “Percentage Change of EASI Scores From Baseline, Mean” value ([2]; Week 4)?
A: Its value is −41.9%.

Q: What about the “Percentage Change of IGA Scores From Baseline, Mean” value ([2]; Week 4) of the same compound?
A: Its value is −28.8%.

Q: And the “Percentage Change of POEM Scores From Baseline, Mean” value ([2]; Week 4)?
A: Its value is −55.3%.

Q: What about the “Percentage Change of SCORAD Levels From Baseline, Mean” value ([2]; Week 4) of the same compound?
A: Its value is −34.8%.

Q: And the “Percentage Change of VAS Scores From Baseline, Mean” value ([2]; Week 4)?
A: The value was −50.9%.

Q: And the “Percentage Change of BSA Levels From Baseline, Mean” value ([2]; Week 8)?
A: The value was −41.0%.

Q: And the “Percentage Change of DLQI Scores From Baseline, Mean” value ([2]; Week 8)?
A: The value was −57.5%.

Q: What about the “Percentage Change of EASI Scores From Baseline, Mean” value ([2]; Week 8) of the same compound?
A: Its value is −51.1%.

Q: What about the “Percentage Change of IGA Scores From Baseline, Mean” value ([2]; Week 8) of the same compound?
A: The value was −42.6%.

Q: What about the “Percentage Change of POEM Scores From Baseline, Mean” value ([2]; Week 8) of the same compound?
A: Its value is −53.1%.

Q: And the “Percentage Change of SCORAD Levels From Baseline, Mean” value ([2]; Week 8)?
A: The value was −44.3%.

Q: And the “Percentage Change of VAS Scores From Baseline, Mean” value ([2]; Week 8)?
A: The value was −52.7%.

Q: And the “Percentage Change of BSA Levels From Baseline, Mean” value ([2]; Week 10)?
A: Its value is −49.7%.

Q: And the “Percentage Change of DLQI Scores From Baseline, Mean” value ([2]; Week 10)?
A: The value was −61.6%.

Q: What about the “Percentage Change of EASI Scores From Baseline, Mean” value ([2]; Week 10) of the same compound?
A: The value was −59.6%.

Q: And the “Percentage Change of IGA Scores From Baseline, Mean” value ([2]; Week 10)?
A: Its value is −46.2%.

Q: What about the “Percentage Change of POEM Scores From Baseline, Mean” value ([2]; Week 10) of the same compound?
A: The value was −50.1%.

Q: And the “Percentage Change of SCORAD Levels From Baseline, Mean” value ([2]; Week 10)?
A: Its value is −47.1%.

Q: What about the “Percentage Change of VAS Scores From Baseline, Mean” value ([2]; Week 10) of the same compound?
A: Its value is −47.7%.

Q: What about the “effect in patients having normal eosinophil levels compared to placebo or the total study population” value ([2]; in vivo) of the same compound?
A: The value was “greater effect; also recorded: higher response rate”.

Q: What about the “change in BSA levels relative to baseline” value [2, 6] of the same compound?
A: The value was “greater change”.

Q: What about the “change in DLQI levels relative to baseline” value [2, 6] of the same compound?
A: Its value is “greater change”.

Q: And the “change in EASI scores relative to baseline” value [2, 6]?
A: Its value is “greater change”.

Q: What about the “change in IGA scores relative to baseline” value [2, 6] of the same compound?
A: The value was “greater change”.

Q: And the “change in POEM scores relative to baseline” value [2, 6]?
A: The value was “greater change”.

Q: And the “change in SCORAD levels relative to baseline” value [2, 6]?
A: The value was “greater change”.

Q: What about the “change in VAS scores relative to baseline” value [2, 6] of the same compound?
A: Its value is “greater change”.

Q: What about the IGA responder rate ([2]; patients having high eosinophil levels (greater than about 0.3×10^9/L)) of the same compound?
A: Its IGA responder rate is 0%.

Q: What about the “EASI scoring: patients classified as responders” value [2, 7] of the same compound?
A: The value was 51%.

Q: What about the “IGA responders (IGA 0 or 1 at Week 8, 2-point decrease)” value [2, 7] of the same compound?
A: The value was 42%.

Q: And the “Pruritus scores (VAS): patients classified as responders” value [2, 7]?
A: Its value is 53%.

Q: And the pruritus reduction [2, 7]?
A: The pruritus reduction was 53%.

Q: And the “EASI (% decrease)” value [2, 8]?
A: The value was 51%.

Q: What about the “IGA responders (%)” value [2, 8] of the same compound?
A: The value was 42%.

Q: What about the “Pruritus delta (as measured by VAS)” value [2, 8] of the same compound?
A: The value was 53%.

Q: And the “Pruritus score decrease (as measured by VAS)” value [2, 8]?
A: Its value is “c. (2.0)”.

Q: And the “SCORAD (% decrease)” value [2, 8]?
A: Its value is 44%.

Q: What about the tolerability ([3]; 2000- or 4000-mg once daily for 28 consecutive days) of the same compound?
A: The tolerability was “tolerated well”.

Q: What about the subjects reporting diarrhea ([3]; 2000-mg group, 3/6) of the same compound?
A: The subjects reporting diarrhea was 50%.

Q: What about the subjects reporting diarrhea ([3]; 4000-mg group, 4/6) of the same compound?
A: Its subjects reporting diarrhea is 66.7%.

Q: What about the subjects reporting nausea ([3]; 4000-mg treatment group, 4/6, 10 events) of the same compound?
A: The subjects reporting nausea was 66.7%.

Q: What about the deaths ([3]; multi-dose study) of the same compound?
A: Its deaths is “no deaths”.

Q: What about the “severe TEAEs” value ([3]; multiple dose) of the same compound?
A: The value was “no severe TEAEs”.

Q: What about the “incidence of TEAEs” value ([3]; multiple dose, 11/12 active-treated subjects, total of 52 TEAEs) of the same compound?
A: Its value is 91.73%.

Q: And the tolerability ([3]; single dose 500, 1000, 2000 or 4000 mg)?
A: The tolerability was “well tolerated”.

Q: What about the “incidence of diarrhea (loose stool)” value ([3]; single dose, 5/24 active-treated subjects) of the same compound?
A: The value was 20.8%.
